Literature values as cited in paper PMC4716540 (British Journal of Cancer, 2015).

System: haematological and solid tumours
Settings: early clinical trials; ref Zhou et al, 2012; cited from earlier work

CC1(C)CC(=O)c2c(C(F)(F)F)nn(-c3ccc(C(N)=O)c(N[C@H]4CC[C@H](OC(=O)CN)CC4)c3)c2C1 [SNX-5422]
Visual disorders (blurred vision, flashes, delayed light/dark accommodation, photophobia): associated with visual disorders

CO[C@H]1/C=C\C=C(/C)C(=O)NC2=CC(=O)C(NCCN(C)C)=C(C[C@@H](C)C[C@H](OC)[C@H](O)[C@@H](C)/C=C(\C)[C@@H]1OC(N)=O)C2=O [alvespimycin]
Visual disorders (blurred vision, flashes, delayed light/dark accommodation, photophobia): associated with visual disorders
